Laboratory results reported in a melting point compilation (Tetko et al.; mined from patent text by program, amines drawn as free bases though some values may be those of a salt).

Row | melting point | Structure (SMILES)
1 | 224 °C | CCOc1cc(-c2cc(C(F)(F)F)nc(-c3ccnc(-c4cccc(S(N)(=O)=O)c4)c3)n2)ccc1C(F)(F)F
2 | 212 to 214 °C | Cc1ccc(C(=O)NC(C)C)c(Nc2ccc3cn[nH]c3c2)n1
3 | 240 to 242 °C | Cc1cccc(Br)c1C(=O)N[C@@H](Cc1ccc(-c2c(C)n(C)c(=O)n(C)c2=O)cc1)C(=O)O
4 | 90 to 92 °C | O=C(O)CCC1CCN(C(=O)CN2CCN(c3ccncc3)CC2)CC1
5 | 240 to 244 °C | COc1ccc(Cn2c(N)c(NC(=O)C(C)C)c(=O)[nH]c2=S)cc1OCc1ccccc1
6 | 212 to 214 °C | Nc1ccncc1C(=NO)c1ccccc1F
7 | 55 to 65 °C | Cn1c(COc2ccc(CC3SC(=O)N(C(c4ccccc4)(c4ccccc4)c4ccccc4)C3=O)cc2)nc2cncnc21 (stereo not drawn)
8 | 189 °C | COc1cc(Cc2cnc(NC(C)=Nc3ccccc3)nc2N)cc(OC)c1OC
9 | 130 °C | O=C(Nc1cccc(C(=NO)c2ccccc2)c1)c1ccn2c1CSC2c1cccnc1 (single isomer, unassigned; (+))
10 | 241 to 243 °C | N#Cc1ncn2c1NCC=C2c1cccc(C(F)(F)F)c1
11 | 102 to 104 °C | N#CSc1ccc(N)c(C(=O)c2ccccn2)c1
12 | 87.5 to 90 °C | COC(=O)C(Oc1ccc(Cl)c2c1CCCC2)c1ccc(Oc2ccc(Cl)cc2)cc1 (stereo not drawn)
13 | 105 to 109 °C | O=C(c1cccs1)c1scc(Br)c1Br
14 | 108 to 111 °C | CC(C)(C)OC(=O)NCCNC(=O)c1ncsc1Br
15 | 88 to 89 °C | CCOC(=O)CCCNC(=O)c1ccc2c(c1)C=CC(C)(C)O2
16 | 246 to 248 °C | CC1(C)CCC(C)(C)c2cc(Cn3cccn3)c(/C=C/c3ccc(C(=O)O)cc3)cc21
17 | 226 to 227 °C | CCCc1nc2c(N)nc3ccccc3c2n1Cc1cc(-c2ccc(F)cc2)no1
18 | 143 to 146 °C | O=C(O)CP(=O)(c1ccccc1)c1ccccc1
19 | 47 to 48 °C | COC(=O)COc1ccc(CCCO)cc1
20 | 78 to 80 °C | O=c1[nH]c(=O)n(C2CC(OCc3ccccc3Cl)C(CO)O2)cc1F (stereo not drawn)
21 | 143 to 144 °C | CCOC(=O)c1cc(C)n(-c2cccc(I)c2)c1-c1ccccc1
22 | 147 °C | Fc1ccc(Cn2c(NC3CCN(CCNC(=S)NCc4cccnc4)CC3)nc3ccccc32)cc1
23 | 154 to 155 °C | Cc1c(C(F)(F)F)ncn(-c2c(Cl)cc(C(F)(F)F)cc2C#N)c1=O

Row | melting point | Structure (SMILES)
24 | 251 to 252 °C | COc1ccc2c(c1)C(=O)c1c-2c(Nc2ccc(C(C)=O)cc2)nc2ccccc12
25 | 256 to 257 °C | Nc1nc(-c2cc(Cl)ccc2Cl)nc(N2CC(O)C2)n1
26 | 119 to 121 °C | CC(C)(O)C#Cc1c(F)c(F)c(-c2c(F)c(F)c(C#CC(C)(C)O)c(F)c2F)c(F)c1F
27 | 120 °C | O=C1NC(=O)C2(CCCN3CCN(c4ccc(Cl)cc4)CC3)C=CC=CC12 (stereo not drawn)
28 | 221 °C | O=C(Nc1nc(C(F)(F)F)co1)C1c2ccccc2Oc2cc(F)ccc21 (racemic)
29 | 155 to 158 °C | COc1ccc(C[C@H](Nc2nc3ccc(Cl)cc3cc2C(=O)O)C(=O)O)cc1
30 | 161 to 163 °C | COc1cc2c(cc1OC)C(C)=[N+]([O-])CN2
31 | 83 to 84 °C | COCCCn1c(O)nc2ccc(C(F)(F)F)cc21
32 | 136 to 138 °C | O=S(=O)(c1ccc(F)cc1)c1ccc(SC2SCC(O)C(O)C2O)cc1 (stereo not drawn)
33 | 139 to 142 °C | CN(C)Cc1ccc(CSCCNC2=NS(=O)(=O)N=C2N(C)C)o1
34 | 134 to 135 °C | COC(=O)[C@H](CC(C)C)NC(=O)CCC(=O)Nc1ccc(Nc2ccccc2)cc1
35 | 152 to 160 °C | CCOC(=O)c1ccc(N=C(Nc2ccc(C(=O)OCC)cc2)c2ccc(-c3ccccc3)cc2)cc1
36 | 179 to 181 °C | COC(=O)c1cc2c3ccccc3n(C(C)=O)c2s1
37 | 135 to 136 °C | CCCCCCCCCOc1ccccc1/C=C/C(C)=C/C=C/C(C)=C\C(=O)O
38 | 80 to 81 °C | COC(=O)C1CCc2cc(C)c(C)cc2C1=O (stereo not drawn)
39 | 58 to 60 °C | COC(=O)c1ccsc1COc1ccc(CCCCO)cc1
40 | 238 to 240 °C | CCCCc1oc2ccccc2c1-c1ncc(-c2ccc3cc(OCc4nnn[nH]4)ccc3c2)o1
41 | 87 to 90 °C | Cc1ccccc1S(=O)(=O)NC(=O)CCSC1c2ccccc2COc2ccc(OCc3ccc4ccc(Cl)cc4n3)cc21 (stereo not drawn)
42 | 231 to 233 °C | CCOC(=O)c1cnc2c(c1Cl)CN(C(=O)OCC)CC2
43 | 89 to 91 °C | O=C(Cc1ccccc1Nc1c(Cl)cccc1Cl)OCCl
44 | 97 to 99 °C | CCOC(=O)C1C(=O)NC(=O)CC1c1ccc(F)cc1 (stereo not drawn)
45 | 79 to 80 °C | CCC1(CCCCCl)C(=O)Nc2ccc(C)cc21 (stereo not drawn)
46 | 255 to 257 °C | O=C(O)/C=C/c1oc(-c2ccccc2)nc1-c1ccc(Cl)cc1

Row | melting point | Structure (SMILES)
47 | 116 to 117 °C | O=S(=O)(Cc1coc(/C=C/c2ccccc2)n1)c1ccc(CCCn2ccnc2)cc1
48 | 177 to 178 °C | CSc1nsc(NC(=O)C(C)(C)C)c1C#N
49 | 91 to 93 °C | CN(C)c1ccc(CC(CS)C(=O)Nc2cccc(C(=O)O)c2)cc1 (stereo not drawn)
50 | 215 to 219 °C | CCCCOC(=O)C(COC(C)(C)C)NC(=O)c1ccc2c(Cl)cnc(NC(=N)N)c2c1 (racemic)
51 | 139 to 140 °C | CCOc1cnc2nc(SCc3ccccc3)nn2c1
52 | 88 to 89 °C | Cc1oc(-c2ccccc2)nc1COc1ccc(CON=C(CCCCCCC(=O)O)c2ccccc2)cc1
53 | 112 to 116 °C | CC/C(CO)=C(/c1ccccc1)c1ccc(O)cc1
54 | 197 to 199 °C | Cc1ccc2c(c1)C(=O)N1CCN=C1N2N1CCCCC1
55 | 195 to 197 °C | O=C(Nc1cccc(NC(=O)C(F)(F)C(F)(F)F)c1)Nc1ccc(Cl)c(Cl)c1
56 | 195 °C | COc1ccccc1[C@H](C)C(=O)N1C[C@@H]2[C@H](F)CCC(c3ccccc3)(c3ccccc3)[C@@H]2C1
57 | 100 to 102 °C | CCC(C)CCOc1c(-c2ccc(S(C)(=O)=O)cc2)cnn(-c2ccc(F)c(F)c2)c1=O (stereo not drawn)
58 | 92 to 94 °C | COCCCSc1c2c(=O)n(C)c(=O)n(CC(C)C)c2cn1Cc1cccc2ccccc12
59 | > 260 °C | COc1cccc2c3c([nH]c12)C(=O)N=NC3=O
60 | 127 to 128 °C | CCOC(=O)c1cc(Cl)cc2c(=O)c(C)c(-c3ccccc3)oc12
61 | 101 to 105 °C | Cc1noc(-c2cnc(NC(=O)[C@H](CC3CCCC3)c3ccc(S(C)(=O)=O)c(Cl)c3)cn2)n1
62 | 58 to 59 °C | Oc1ccc(Cl)c2c1CCCC2
63 | 130 to 131 °C | COc1ccc2cc(-c3ccc(OCC(O)CNC(C)(C)C)cc3)n(C)c(=O)c2c1 (stereo not drawn)
64 | 184 to 186 °C | COC(=O)c1ccc(Cc2ccc(O)cc2)cn1
65 | 108 to 110 °C | CC[C@@H](c1ccccc1)N(Cc1ccc(C(=O)OC)cc1)S(=O)(=O)c1ccc(Cl)cc1
66 | 201 to 203 °C | COCc1c(C(=O)OC(C)C)ncc2[nH]c3cccc(Oc4ccccc4)c3c12
67 | 200 to 202 °C | CCCc1ccc(CCCC(P(=O)(O)O)P(=O)(O)O)cc1
68 | 97 to 98 °C | BrC(Br)Cc1ccc(OCc2ccccc2)cc1
69 | 110 to 118 °C | O=C(O)c1cc([N+](=O)[O-])cs1

Row | melting point | Structure (SMILES)
70 | 60 to 61 °C | CC(=O)OC(C)Cc1ccc(-c2ccc(C(C)=O)cc2)cc1 (stereo not drawn)
71 | 169 to 170 °C | COc1ccc(-n2nc(Sc3ccc4ccccc4c3)c(C)c(C#N)c2=O)cc1
72 | 85 to 90 °C | CCC(=O)NCCCC(=O)O
73 | 179 to 180 °C | O=C(Nc1ccccc1)Nc1ccnc(F)c1
74 | 104 °C | COc1ccc(Cl)cc1C(=O)NCc1ccc(-c2ccc(OC(C)(C)C(=O)O)cc2)cc1
75 | 76 °C | CCCN(CCC)S(=O)(=O)c1cc(C(=O)CCl)ccc1Cl
76 | 60.5 °C | CCc1ccc(C=NNC(=O)c2ccc(O)cc2)o1
77 | 154 to 156 °C | COc1ccc(C(=O)[C@H]2CC=CC[C@H]2C(=O)O)c2c1OC(C)(C)C2 (relative stereo)
78 | > 250 °C | O=C(O)CCCc1cc2cc(Cl)ccc2n1S(=O)(=O)c1ccc2c(c1)CNCC2
79 | 132 °C | CCCC(=O)Oc1ccc2sc(S(N)(=O)=O)nc2c1
80 | 232 to 234 °C | O=S1(=O)CCN2C=CC=C(c3ccc(Oc4ccc(Cl)cc4)cc3)C2=N1
81 | 124 to 125 °C | O=S1(=O)CCN2CCN[C@H](c3ccc(Oc4ccccc4)cc3)C2=N1
82 | 248 to 250 °C | O=c1ccc(S(=O)(=O)c2cc3cccc(Cl)c3[nH]2)n[nH]1
83 | 218 to 219 °C | CC1COCc2nc3c(N)nc4ccc(OC(=O)N5CCCC5)cc4c3n21 (stereo not drawn)
84 | 134 to 136 °C | N#CC[C@@H](O)CC(=O)NN
85 | 275 to 278 °C | O=S1(=O)c2ccccc2NC(=S)c2ccc(C(F)(F)F)cc21
86 | 117 to 118 °C | Cc1ccc2c(Cl)c3ccccc3nc2c1
87 | 135 to 160 °C | CCOCc1nc2c(N)nc3ccccc3c2n1CC1(NC(=O)NC(C)C)CCCCC1
88 | 219 to 224 °C | CCNC(=O)c1ccc(N2CCN(Cc3cc4c(c(OC(F)F)c3)OC(C)C(=O)N4)CC2)cc1 (stereo not drawn)
89 | 133 to 135 °C | CC(=O)Nc1cc(C)c(N)cc1C
90 | 130 °C | O=P(Oc1cccc(OP(=O)(c2ccccc2)c2ccccc2)c1)(c1ccccc1)c1ccccc1

Row | Structure (SMILES) | melting point
91 | O=C1NCN(c2ccccc2)C12CCN(CCCn1c(=O)[nH]c3cc(Cl)c(Cl)cc31)CC2 | 275 °C
92 | CN1C(=O)[C@H](NC(=O)/C=C/c2ccc(Br)cc2)N=C(c2ccccc2)c2ccccc21 | 121 to 124 °C
93 | Fc1ccc2[nH]cc(C3=CCN(CC4COc5ccc6c(c5O4)OCCC6)CC3)c2c1 (stereo not drawn) | 146 to 148 °C
94 | Clc1ccccc1C(c1ccccc1)(c1ccccc1)n1cccn1 | 135 °C
95 | CCCN1CCC23c4cccc(OC)c4OC2C2CCC3(C1=O)C(C(=O)OC)C2 (stereo not drawn) | 126 to 128 °C
96 | COC(=O)[C@@H]1C[C@H](OS(=O)(=O)c2ccccc2Br)C(=O)[C@@H]2[C@@]3(C)C[C@@H](c4ccoc4)OC(=O)[C@H]3CC[C@]21C | 162 to 163 °C
97 | COc1ccc(CN2Cc3c(C(N)=O)ncn3-c3ccc(Cl)cc3C2=O)c(OC)c1 | > 220 °C
98 | N#Cc1cc(Cl)c(NC(=O)NC(=O)c2c(F)cccc2F)cc1Cl | 238 to 240 °C
